How the values were obtained:
[1] = release/dissolution test of pseudoephedrine particles in distilled water, quantitative determination by UV spectrophotometry; type: physicochemical; settings: ambient temperature, FIG. 18
[2] = release/dissolution test of BSA particles in distilled water, quantitative determination by UV spectrophotometry; type: physicochemical; settings: ambient temperature, FIG. 19
Description: This time, a heat-sensitive protein, BSA (Bovine Serum Albumin), the mean diameter of which, measured by particle size determination, is 85.6 μm, is coated according to FIG. 2 of the process according to the present invention. 3 g of BSA are placed in the system for injection by CO2 and 3 g of Precirol® are placed in the autoclave. The supercritical medium conditions are 110 bar and 50° C. for a dissolution time of 30 minutes. The pressure for injection of the BSA particles is 80 bar. Once coinjection has been carried out, the coated particles are quantitatively determined by UV spectrophotometry (FIG. 19). While the crude BSA is completely dissolved in distilled water at ambient temperature after 5 minutes, the protein coated with Precirol® (BSA 1 test) for its part takes close to 30 minutes in order to be completely dissolved in distilled water at ambient temperature.

Compound	time to complete dissolution [1]	time to complete dissolution [2]
CN[C@@H](C)[C@@H](O)c1ccccc1 [crude pseudoephedrine, pseudoephedrine]	10 min	–
crude BSA: heat-sensitive protein, BSA (Bovine Serum Albumin), uncoated	–	5 min
